Patent publication US20240345105A1, “Compositions and Methods for Detecting Analytes in Oral Fluids” (George Mason Research Foundation, Inc., priority 2023, published 2024)

Test: LC/MRM-MS quantification of THC in oral fluid with heavy isotope standard curve
Assay type: in vivo
Details: oral fluid of cannabis smoking volunteer, ratio to heavy THC isotope
Text: Samples containing drugs of interest are processed and run on the Thermo Quantum Triple Quad MS (LC/MRM MS) in triplicate. Reference Stable heavy isotope analogs are spiked into known drug free OF to determine the sensitivity limit of detection. A standard curve is generated by mixing a known amount of reference heavy isotope analogs with varying amounts of the natural drug, plotting the ratio of the concentration of natural drug to that of the heavy standard isotope analog. The reference heavy isotope analogs are spiked into suspected positive OF sample. The ratio of […] is calculated and fitted to the standard curve to calculate the natural drugs concentration.
The present disclosure provides an exemplary oral fluid sample processing protocol. […]

CCCCCc1cc(O)c2c(c1)OC(C)(C)[C@@H]1CCC(C)=C[C@@H]21 [THC, (6aR,10aR)-6,6,9-trimethyl-3-pentyl-6a, 7,8,10a-tetrahydro-6H-benzo[c]chromen-1-ol]
concentration of THC in saliva: 8.615 ng/mL
